Measurements published in US9732063B2, “Kinase inhibitors” (RESPIVERT LIMITED, priority 2012, dated 2017).
Like-named read-outs stand apart in the source and are kept apart here.

Key:
PBMCs [1] = assay: LPS-induced TNFα/IL-8 release in PBMC cells; format: cell-based; details: Homo sapiens, read-out: IC50 Values for Inhibition of Cytokine Release PBMCs IL-8
Procedure, shortened: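 TNFα and IL-8 in supernatants were measured by sandwich ELISA after 24 h of 1 ng/mL LPS (E. coli O111:B4) at 37 °C, 5% CO2. Test compounds were added 2 h before LPS to PBMCs from healthy subjects, separated on a density gradient.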

Syk = Syk (Homo sapiens (Human), UniProt P43405); assay: Syk enzyme inhibition (Z-LYTE FRET); format: biochemical
Description: (§1) The enzyme inhibitory activities of compounds disclosed herein are determined by FRET using synthetic peptides labelled with both donor and acceptor fluorophores (Z-LYTE, Invitrogen Ltd., Paisley, UK).
(§2) The relevant enzyme (3000 ng/mL or 2000 ng/mL respectively, 2.5 μL) is incubated with the test compound (either 4 μg/mL, 0.4 μg/mL, 0.04 μg/mL, or 0.004 μg/mL, 2.5 μL each) for 2 hr at RT. The FRET peptides (8 μM, 2.5 μL), and appropriate ATP solutions (2.5 μL, 800 μM for c-Src, and 60 μM ATP for Syk) are then added to the enzymes/compound mixtures and incubated for 1 hr. Development reagent (protease, 5 μL) is added for 1 hr prior to detection in a fluorescence microplate reader (Varioskan® Flash, ThermoFisher Scientific).
(§3) In all cases, the site-specific protease cleaves non-phosphorylated peptide only and eliminates the FRET signal. Phosphorylation levels of each reaction are calculated using the ratio of coumarin emission (donor) over fluorescein emission (acceptor), for which high ratios indicate high phosphorylation and low ratios indicate low phosphorylation levels.

d-U937 cells = assay: LPS-induced TNFα/IL-8 release in d-U937 cells; format: cell-based; details: Homo sapiens
Description: Cells are pre-incubated with final concentrations of test compound for 2 hr and are then stimulated with 0.1 μg/mL of LPS (from E. coli: O111:B4, Sigma) for 4 hr. The supernatant is collected for determination of TNFα and IL-8 concentrations by sandwich ELISA (Duo-set, R&D systems). […] The relative 50% effective concentration (REC50) is determined from the resultant concentration-response curve. The inhibition of IL-8 production is calculated at each concentration of test compound by comparison with vehicle control.

PBMCs [2] = assay: IL-2 and IFN gamma release in CD3/CD28 stimulated PBMC cells; format: cell-based; details: Homo sapiens
Procedure, shortened: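 They were cultured with compound for 3 days. IL-2 and IFN-γ in supernatants were quantified by sandwich ELISA, and IC50 was derived from the dose-response curve.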

p38 MAPKα = p38 MAPKα (Homo sapiens (Human), UniProt Q16539); assay: p38 MAPKα enzyme inhibition (Z-LYTE FRET, Method 2); format: biochemical
p38 MAPKα, sequence (Q16539 whole entry): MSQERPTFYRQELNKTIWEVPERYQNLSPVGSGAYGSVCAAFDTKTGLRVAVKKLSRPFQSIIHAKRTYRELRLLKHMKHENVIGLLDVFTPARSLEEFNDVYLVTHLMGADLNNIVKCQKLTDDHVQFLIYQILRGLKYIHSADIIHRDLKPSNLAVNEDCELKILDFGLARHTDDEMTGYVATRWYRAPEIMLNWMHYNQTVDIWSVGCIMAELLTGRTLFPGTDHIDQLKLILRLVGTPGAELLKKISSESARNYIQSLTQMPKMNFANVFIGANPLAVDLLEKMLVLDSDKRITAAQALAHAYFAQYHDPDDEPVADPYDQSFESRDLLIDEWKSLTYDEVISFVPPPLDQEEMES
Description: as §1
The inhibitory activities of test compounds against the p38 MAPKα isoform (MAPK14: Invitrogen), are evaluated indirectly by determining the level of activation/phosphorylation of the down-stream molecule, MAPKAP-K2. The p38 MAPKα protein (80 ng/mL, 2.5 μL) is mixed with the test compound (2.5 μL of either 4 μg/mL, 0.4 μg/mL, 0.04 μg/mL or 0.004 μg/mL) for 2 hr at RT. […] The mixture is incubated for 1 hr at RT. Development reagent (protease, 5 μL) is added for 1 hr prior to detection in a fluorescence microplate reader (Varioskan® Flash, ThermoFisher Scientific).
as §3

GSK3α = GSK3α (Homo sapiens (Human), UniProt P49840); assay: GSK 3α enzyme inhibition (Z-LYTE FRET, Method 2); format: biochemical
GSK3α, sequence (P49840 whole entry): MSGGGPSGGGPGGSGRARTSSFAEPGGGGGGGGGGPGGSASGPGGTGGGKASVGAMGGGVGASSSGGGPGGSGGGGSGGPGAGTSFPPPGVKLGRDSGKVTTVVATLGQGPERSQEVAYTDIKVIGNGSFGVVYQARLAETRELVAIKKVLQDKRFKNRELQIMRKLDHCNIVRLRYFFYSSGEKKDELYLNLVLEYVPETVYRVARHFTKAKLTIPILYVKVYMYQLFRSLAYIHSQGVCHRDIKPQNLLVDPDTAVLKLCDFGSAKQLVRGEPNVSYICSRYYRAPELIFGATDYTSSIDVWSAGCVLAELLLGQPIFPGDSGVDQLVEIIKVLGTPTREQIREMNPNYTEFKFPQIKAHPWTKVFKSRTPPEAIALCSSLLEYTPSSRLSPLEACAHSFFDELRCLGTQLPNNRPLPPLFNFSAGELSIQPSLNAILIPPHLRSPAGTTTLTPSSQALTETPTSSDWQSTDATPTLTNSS
Procedure, shortened: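 Z-LYTE FRET: GSK3α preincubated with compound 2 h at RT, then FRET peptide and ATP added (stocks 8 μM and 40 μM) for 1 h, followed by 1 h protease development. Compound stocks 4–0.004 μg/mL; phosphorylation from coumarin/fluorescein emission ratio.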

HT29 cells = assay: IL-1β-induced IL-8 release in HT29 cells; format: cell-based; details: Homo sapiens, HT-29, read-out: IC50 Values for Inhibition of Cytokine Release HT29 cells IL-8
Description: HT29 cells, a human colon adenocarcinoma cell line, are plated in a 96 well plate (24 hrs) and pre-treated with compounds at the desired concentration for 2 hours before addition of 5 ng/mL of IL-1β (Abcam) for 24 hours. Supernatants are harvested for IL-8 quantification by Sandwich ELISA (Duo-set, R&D System). The IC50 is determined from the dose response curve.

c-Src = c-Src (Homo sapiens (Human), UniProt P12931); assay: c-Src enzyme inhibition (Z-LYTE FRET); format: biochemical
c-Src, sequence (P12931 whole entry, looked up): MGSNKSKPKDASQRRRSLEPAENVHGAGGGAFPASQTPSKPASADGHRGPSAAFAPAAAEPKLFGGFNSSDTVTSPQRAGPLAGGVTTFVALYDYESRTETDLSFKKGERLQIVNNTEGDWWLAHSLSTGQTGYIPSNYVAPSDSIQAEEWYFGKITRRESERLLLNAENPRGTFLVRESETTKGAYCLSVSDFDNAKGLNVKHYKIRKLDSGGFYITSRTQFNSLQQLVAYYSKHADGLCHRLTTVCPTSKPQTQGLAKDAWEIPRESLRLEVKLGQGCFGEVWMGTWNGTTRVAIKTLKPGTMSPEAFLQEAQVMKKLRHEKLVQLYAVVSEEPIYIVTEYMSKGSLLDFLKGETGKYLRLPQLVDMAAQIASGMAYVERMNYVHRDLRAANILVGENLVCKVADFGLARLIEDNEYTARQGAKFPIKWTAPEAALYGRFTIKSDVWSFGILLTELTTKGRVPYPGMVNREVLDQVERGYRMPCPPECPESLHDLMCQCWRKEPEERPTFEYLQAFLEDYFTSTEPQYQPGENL
Description: as §1, §2, §3

TNBS-induced colitis = details: for LP inflammation / Ulcer grade: oral gavage BID, conducted over 2 days, mice; for inflammatory cell infiltrate in the reticular and laminar propria zone / ulcer grade and epithelial repair compared to the vehicle control: dosed orally at either 1 or 5 mg/kg
Description: On Day 0 of the study TNBS (200 μL) is administered intra-colonically via a plastic catheter followed by BID dosing of the vehicle, reference or test compound for 2 or 4 days. During the study animals are weighed every day and stool observations are made and recorded as a score, based on stool consistency. At the time of sacrifice on Day 2 (or Day 4) the large intestine is removed and the length and weight recorded. Sections of the colon are taken for either MPO analysis to determine neutrophil infiltration or for histopathology involving scoring to determine disease severity.

[3] = dU937, read-out: IC50 Values for Inhibition of Cytokine Release dU937 cells TNFα
[4] = read-out: IC50 Values for Inhibition of Cytokine Release PBMCs IFNγ
[5] = read-out: IC50 Values for Inhibition of Cytokine Release PBMCs IL-2
[6] = dU937, read-out: IC50 Values for Inhibition of Cytokine Release dU937 cells IL-8

Row | SMILES | IC50 (PBMCs [1]) [nM] | IC50 (Syk) [nM] | IC50 (d-U937 cells; [3]) [nM] | IC50 (PBMCs [2]; [4]) [nM] | IC50 (PBMCs [2]; [5]) [nM] | IC50 (p38 MAPKα) [nM] | IC50 (GSK3α) [nM] | IC50 (HT29 cells) [nM] | IC50 (c-Src) [nM] | LP inflammation (TNBS-induced colitis; 1 mg/kg) | Ulcer grade (TNBS-induced colitis; 1 mg/kg) | LP inflammation (TNBS-induced colitis; 5 mg/kg) | Ulcer grade (TNBS-induced colitis; 5 mg/kg) | inflammatory cell infiltrate in the reticular and laminar propria zone (TNBS-induced colitis) | ulcer grade and epithelial repair compared to the vehicle control (TNBS-induced colitis) | IC50 (d-U937 cells; [6]) [nM]
1 | COc1ccc(-n2nc(C(C)(C)C)cc2NC(=O)Nc2ccc(Oc3ccnc(Nc4cccc(OS(C)(=O)=O)c4)n3)c3ccccc23)cn1 [Example 3, 3-(4-((4-(3-(3-(tert-Butyl)-1-(6-methoxypyridin-3-yl)-1H-pyrazol-5-yl)ureido)naphthalen-1-yl)oxy)pyrimidin-2-yl)amino)phenyl methanesulfonate] | 1.5 | 66 | 0.3 | 1.2 | 9.9 | 28 | 2540 | 2.2 |  |  |  |  |  |  |  | 
2 | COc1cc(Nc2nccc(Oc3ccc(NC(=O)Nc4cc(C(C)C)nn4-c4ccc(C)cc4)c4ccccc34)n2)cc(OS(C)(=O)=O)c1 [Example 12, 3-((4-((4-(3-(3-Isopropyl-1-(p-tolyl)-1H-pyrazol-5-yl)ureido)naphthalen-1-yl)oxy)pyrimidin-2-yl)amino)-5-methoxyphenyl methanesulfonate] | 2.8 | 238 | 0.4 | 4.7 | 24.8 | 422 |  | 4.3 | 39 |  |  |  |  |  |  | 
3 | Cc1ccc(-n2nc(C(C)C)cc2NC(=O)Nc2ccc(Oc3ccnc(Nc4cccc(N=S(C)(C)=O)c4)n3)c3ccccc23)cc1 [Example 14] | 2.4 |  |  |  |  |  |  | 7.9 |  |  |  |  |  |  |  | 
4 | COc1cc(Nc2nccc(Oc3ccc(NC(=O)Nc4cc(C(C)C)nn4-c4ccc(C)cc4)c4ccccc34)n2)cc(S(=O)(=O)C2CC2)c1 [Example 18, 1-(4-((2-((3-(Cyclopropylsulfonyl)-5-methoxyphenyl)amino)pyrimidin-4-yl)oxy)naphthalen-1-yl)-3-(3-isopropyl-1-(p-tolyl)-1H-pyrazol-5-yl)urea] | 2.1 | 358 |  |  | 84.6 | 102 | 2900 | 6.2 | 27 | 2.8 ± 0.4 | 3.3 ± 0.4 | 2.6 ± 0.3 | 3.0 ± 0.5 | marked reduction | marked improvements | 
5 | COc1cc(Nc2nccc(Oc3ccc(NC(=O)Nc4cc(C(C)C)nn4-c4ccc(C)cc4)c4ccccc34)n2)cc(SCCO)c1 [Example 22] | 2.3 | 134 |  |  | 30.7 | 114 |  | 5.1 | 47 | 2.6 ± 0.3 | 2.8 ± 0.4 | 3.8 ± 0.3 | 3.7 ± 0.4 | marked reduction | marked improvements | 
6 | COc1cc(Nc2nccc(Oc3ccc(NC(=O)Nc4cc(C(C)(C)C)nn4-c4ccc(C)cc4)c4ccccc34)n2)cc(OCCCN2CCOCC2)c1 [Example 49, 1-(3-(tert-Butyl)-1-(p-tolyl)-1H-pyrazol-5-yl)-3-(4-((2-((3-methoxy-5-(3-morpholino-propoxy)phenyl)amino)pyrimidin-4-yl)oxy)naphthalen-1-yl)urea] | 1.9 | 20 |  | 1.2 | 54.7 | 175 | 7260 | 2.3 | 23 |  |  |  |  |  |  | 
7 | COCCOCCOCCOc1cc(Nc2nccc(Oc3ccc(NC(=O)Nc4cc(C(C)(C)C)nn4-c4ccc(C)cc4)c(Cl)c3Cl)n2)cc(OC)c1 [Example 53, 1-(3-(tert-Butyl)-1-(p-tolyl)-1H-pyrazol-5-yl)-3-(2,3-dichloro-4-((2-((3-methoxy-5-(2-(2-(2-methoxyethoxyl)ethoxy)ethoxy)phenyl)amino)pyrimidin-4-yl)oxy)phenyl)urea] | 3.8 | 56 |  | 2.1 | 133 | 816 | > 10000 | 2.4 | 23 |  |  |  |  |  |  | 
8 | COc1cc(Nc2nccc(Oc3ccc(NC(=O)Nc4cc(C(C)(C)C)nn4-c4ccc(C)cc4)c4ccccc34)n2)cc(SCCO)c1 [Example 55, 1-(3-(tert-Butyl)-1-(p-tolyl)-1H-pyrazol-5-yl)-3-(4-((2-((3-((2-hydroxyethyl)thio)-5-methoxyphenyl)amino)pyrimidin-4-yl)oxy)naphthalen-1-yl)urea] | 2 | 42 |  | 2 | 36.8 | 200 | 1230 | 2.4 |  |  |  |  |  |  |  | 
9 | COc1cc(Nc2nccc(Oc3ccc(NC(=O)Nc4cc(C(C)(C)C)nn4-c4ccc(OC)nc4)c4ccccc34)n2)cc(S(=O)(=O)C2CC2)c1 [Example 61, 1-(3-(tert-Butyl)-1-(6-methoxypyridin-3-yl)-1H-pyrazol-5-yl)-3-(4-((2-((3-(cyclopropylsulfonyl)-5-methoxyphenyl)amino)pyrimidin-4-yl)oxy)naphthalen-1-yl)urea] | 2 |  |  | 1.9 | 42.4 | 301 | 3800 | 4.8 | 73 |  |  |  |  |  |  | 
10 | COc1cc(Nc2nccc(Oc3ccc(NC(=O)Nc4cc(C(C)(C)C)nn4-c4ccc(C)cc4)c4ccccc34)n2)cc(OCCOCCOCCO)c1 [Example 62, 1-(3-(tert-Butyl)-1-(P-tolyl)-1H-pyrazol-5-yl)-3-(4-((2-((3-(2-(2-(2-hydroxyethoxy)ethoxy)ethoxy)-5-methoxyphenyl)amino)pyrimidin-4-yl)oxy)naphthalen-1-yl)urea] | 1.5 | 6 |  | 2.1 | 52.9 | 95 |  | 2.5 | 4 |  |  |  |  |  |  | 
11 | COCCOCCOCCOc1cc(Nc2nccc(Oc3ccc(NC(=O)Nc4cc(C(C)(C)C)nn4-c4ccc(N(C)C)cc4)c4ccccc34)n2)cc(OC)c1 [Example 63, 1-(3-(tert-Butyl)-1-(4-(dimethylamino)phenyl)-1H-pyrazol-5-yl)-3-(4-((2-((3-methoxy-5-(2-(2-(2-methoxyethoxy)ethoxy)ethoxy)phenyl)amino)pyrimidin-4-yl)oxy)naphthalen-1-yl)urea] | 2 |  | 0.4 | 1.5 | 76.2 | 187 | 4820 | 2 | 13 |  |  |  |  |  |  | 0.6
12 | COc1cc(Nc2nccc(Oc3ccc(NC(=O)Nc4cc(C(C)(C)C)nn4-c4ccc(C)cc4)c(Cl)c3Cl)n2)cc(OCCOCCOCCO)c1 [Example 71, 1-(3-(tert-Butyl)-1-(p-tolyl)-1H-pyrazol-5-yl)-3-(2,3-dichloro-4-((2-((3-(2-(2-(2-hydroxyethoxyl)ethoxy)ethoxy)-5-methoxyphenyl)amino)pyrimidin-4-yl)oxy)phenyl)urea] | 1.8 | 23 | 1 | 1.1 | 60.8 | 740 | 7740 |  | 19 |  |  |  |  |  |  | 1.3
